Experimental data taken from ChEMBL document CHEMBL1152107 (Bioorg Med Chem Lett, 1997).

Experiments:
HCT-116 [1] = assay: The compound was evaluated in vitro for inhibition of human colon cancer cell line HCT116; format: functional, cell-based
HCT-116 [2] = assay: The compound was evaluated for the cytotoxicity against human colon cancer cell lines(HCT116), activity expressed as IC50 vs IC50 of Paclitaxel.; format: functional
[3] = molecular target: Tubulin alpha chain (Sus scrofa) (UniProt P02550); assay: The compound was evaluated in vitro in a tubulin polymerization assay, activity expressed as potency of compound relative to Paclitaxel.; format: functional
M109 = assay: The compound was evaluated in vivo for the T/C ratio against M-109 lung carcinoma.; format: functional, Mus musculus

Sequence of Tubulin alpha chain (Sus scrofa) (P02550 whole entry, looked up): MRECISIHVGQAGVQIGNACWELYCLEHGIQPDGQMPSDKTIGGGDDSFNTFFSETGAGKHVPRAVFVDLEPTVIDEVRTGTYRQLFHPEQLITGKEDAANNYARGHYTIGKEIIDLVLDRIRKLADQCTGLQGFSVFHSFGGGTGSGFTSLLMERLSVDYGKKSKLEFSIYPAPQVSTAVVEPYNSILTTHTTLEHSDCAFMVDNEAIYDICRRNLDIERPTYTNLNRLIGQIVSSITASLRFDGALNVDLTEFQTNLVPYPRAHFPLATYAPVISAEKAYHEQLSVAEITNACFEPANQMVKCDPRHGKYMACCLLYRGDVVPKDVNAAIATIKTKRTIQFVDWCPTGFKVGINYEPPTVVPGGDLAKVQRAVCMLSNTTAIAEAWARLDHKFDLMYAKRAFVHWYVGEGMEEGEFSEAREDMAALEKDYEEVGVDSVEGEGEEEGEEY

SMILES: CC(=O)O[C@H]1C(=O)[C@@]2(C)[C@H]([C@H](OC(=O)c3ccccc3)[C@]3(O)C[C@H](OC(=O)[C@H](O)[C@@H](O)c4ccccc4)C(C)=C1C3(C)C)[C@]1(OC(C)=O)CO[C@@H]1C[C@@H]2O
- IC50 (HCT-116 [1]): > 200 nM
- Ratio (HCT-116 [2]): >100
- Ratio [3]: > 100

SMILES: CC(=O)O[C@H]1C(=O)[C@@]2(C)[C@H]([C@H](OC(=O)c3ccccc3)[C@]3(O)C[C@H](OC(=O)[C@H](O)[C@@H](NC(=O)c4ccccc4)c4ccccc4)C(C)=C1C3(C)C)[C@]1(OC(C)=O)CO[C@@H]1C[C@@H]2O [PACLITAXEL]
- Ratio (HCT-116 [2]): 1
- T/C (M109): 166%

SMILES: CC(=O)O[C@H]1C(=O)[C@@]2(C)[C@H]([C@H](OC(=O)c3ccccc3)[C@]3(O)C[C@H](OC(=O)[C@H](O)[C@@H](OC(=O)NC(C)(C)C)c4ccccc4)C(C)=C1C3(C)C)[C@]1(OC(C)=O)CO[C@@H]1C[C@@H]2O
- IC50 (HCT-116 [1]): 6.6 nM
- Ratio (HCT-116 [2]): 3.3
- Ratio [3]: 1.5
- T/C (M109): 166%

SMILES: CC(=O)O[C@@]12CO[C@@H]1C[C@H](O)[C@@]1(C)C(=O)[C@H](O)C3=C(C)[C@@H](OC(=O)[C@H](O)[C@@H](OC(=O)NC(C)(C)C)c4ccccc4)C[C@@](O)([C@@H](OC(=O)c4ccccc4)C12)C3(C)C (some centres not stated)
- IC50 (HCT-116 [1]): 10.3 nM
- Ratio (HCT-116 [2]): 5.1
- Ratio [3]: 7.8
